Experimental data published in patent US8912169B2, “Beta-lactamase inhibitors” (VenatoRx Pharmaceuticals, Inc., priority 2012, dated 2014).
Read-outs that look alike come from different tables or passages of the source.

Legend:
Type in all cases: biochemical
VIM-2 = target: T1, VIM-2 (Escherichia coli, UniProt Q5U7L7); assay: β-lactamase enzyme inhibition, VIM-2; details: substrate Nitrocefin 100 μM, 486 nm; read-out: Class B VIM-2 IC50
T1 construct: made in house; host or cells: E. coli BL21(DE3)
Experimental: For Vim-2 metallo β-lactamase, the procedure was identical with the following exceptions, first the protein was not pH adjusted to pH 5 with 50 mM sodium acetate, second, the chromatography step was changed to a 5 ml Q sepharose anion exchange column pre-equilibrated with 50 mM Hepes pH 7.5, and elution of the protein was achieved by a linear gradient of NaCl (0-600 mM). Finally, the VIM-2 purification required a second run (3rd step) on the Q sepharose anion exchange column to achieve acceptable purity (>90%).
(§1) An equal volume of diluted enzyme stock was added, and the plates were incubated at 37° C. for 15 min. Nitrocefin was used as substrate for p99 AmpC, VIM-2 and OXA-1 and dispensed into each well at a final concentration of 100 μM. Absorbance at 486 nm was immediately monitored for 10 min using a Biotek Powerwave XS2 microplate spectrophotometer using the GENS software package (Biotek Instruments, Winooski Vt.). In an analogous fashion, imipenem was used as substrate for Kpc-2 and Cefotaxime was used for SHV-5, while changes in absorbance upon hydrolysis of the β-lactam ring were monitored at 300 nm and 260 nm respectively in UV-transparent 96-well microtiter assay plates. Maximum rates of hydrolysis were compared to those in control wells (without inhibitors), and percentages of enzyme inhibition were calculated for each concentration of inhibitor. The concentration of inhibitor needed to reduce the initial rate of hydrolysis of substrate by 50% (IC50) was calculated as the residual activity of β-lactamase at 486 nm using GraFit version 7 kinetics software package (Erithacus Software, Surrey, UK).
(§2) Using the methodology described above, examples of the current invention were evaluated for their ability to inhibit β-lactamase enzymes from all four Ambler classifications (A through D). […] NT=Not tested.

KPC-2 = target: T2, KPC-2 (Klebsiella pneumoniae, UniProt Q9F663); assay: β-lactamase enzyme inhibition, KPC-2; details: substrate imipenem, 300 nm; read-out: Class A KPC-2 IC50
T2 construct: made in house; host or cells: E. coli BL21(DE3)
Experimental: (§3) For SHV-5, Kpc-2, p99AmpC and OXA-1 β-lactamases, E. coli BL21(DE3) bacterial cells carrying expression plasmids (expressed as native untagged proteins) for the individual β-lactamases were grown in 1 L of Superbroth (Teknova Inc. Hollister, Calif.) supplemented with 100 μg/mlkanamycin selection and 1×5052 (0.5% glycerol, 0.05% glucose and 0.2% α-lactose) at 35° C. for 18-20 hours. Cells were harvested by centrifugation (4,000×g, 4° C., 20 min), resuspended in 50 ml of 10 mM HEPES pH 7.5 ( 1/20 of the initial volume). The cells were lysed by sonication (5 pulses of 45 seconds) at 45 W on ice. The lysates were clarified by centrifugation at 10,000×g for 40 minutes at 4° C. Samples were diluted 5-fold in 50 mM sodium acetate pH 5.0, stored overnight at 4° C., after which they were centrifuged at 10,000×g for 30 minutes to clarify, and filtered through 0.45 μm filters. The samples were loaded onto a 5 ml Capto S sepharose cation exchange column (GE Healthcare) pre-equilibrated with 50 mM sodium acetate pH 5.0. The column was washed with 5 column volumes of 50 mM sodium acetate pH 5.0 to wash out unbound protein and a linear gradient of NaCl (0 to 500 mM) was used to elute the protein (over 16 CV) from the column. Fractions were assayed for β-lactamase activity using Centa (Calbiochem, Gibbstown, N.J.) or Nitrocefin (EMD Millipore chemicals, Darmstadt, Germany) as a reporter β-lactamase substrate for activity in the isolated fractions. Active fractions were pooled, concentrated and further purified by gel filtration chromatography on a Superdex 75 prep grade gel filtration column (GE Healthcare, Piscataway, N.J.) pre-equilibrated in 50 mM Hepes pH 7.5, 150 mM NaCl. Active fractions were pooled concentrated, quantitated by BCA protein determination (Thermo Scientific, Rockford, Ill.), dialyzed into PBS and frozen at −80° C. in 20% glycerol until use.
as §1, §2

OXA-1 = target: T3, OXA-1 (Escherichia coli, UniProt P13661); assay: β-lactamase enzyme inhibition, OXA-1; details: substrate Nitrocefin 100 μM, 486 nm; read-out: Class D OXA-1 IC50
T3 construct: made in house; host or cells: E. coli BL21(DE3)
Experimental: as §3, §1, §2

SHV-5 = target: T4, SHV-5 (Klebsiella pneumoniae, UniProt P0A3M1); assay: β-lactamase enzyme inhibition, SHV-5
T4 construct: made in house; host or cells: E. coli BL21(DE3)
Experimental: as §3, §1, §2

p99 AmpC = target: T5, p99 AmpC (Enterobacter cloacae, UniProt P05364); assay: β-lactamase enzyme inhibition, p99 AmpC
T5 construct: made in house; host or cells: E. coli BL21(DE3)
Experimental: as §3, §1, §2

[1] = read-out: Class A SHV-5 IC50, substrate Cefotaxime, 260 nm

N=CN[C@H]1CC[C@H](CC(=O)N[C@H]2Cc3cccc(C(=O)O)c3OB2O)CC1 [Example 30, (R)-3-(2-(trans-4-formimidamidocyclohexyl)acetamido)-2-hydroxy-3,4-dihydro-2H-benzo[e][1,2]oxaborinine-8-carboxylic acid]
IC50 (VIM-2): 100 to 1000 nM
IC50 (KPC-2): < 100 nM
IC50 (OXA-1): 100 to 1000 nM
IC50 (SHV-5): < 100 nM
IC50 (p99 AmpC): < 100 nM

NCCC(N)[C@H]1CC[C@H](CC(=O)N[C@H]2Cc3cccc(C(=O)O)c3OB2O)CC1 (stereo partly drawn) [Example 76, (R)-3-(2-(trans-4-(1,3-diaminopropyl)cyclohexyl)acetamido)-2-hydroxy-3,4-dihydro-2H-benzo[e][1,2]oxaborinine-8-carboxylic acid]
IC50 (VIM-2): < 100 nM
IC50 (KPC-2): < 100 nM
IC50 (OXA-1): < 100 nM
IC50 (SHV-5): < 100 nM
IC50 (p99 AmpC): < 100 nM

N[C@H]1CC[C@H](CCC(=O)N[C@H]2Cc3cccc(C(=O)O)c3OB2O)CC1 [Example 21, (R)-3-(3-(trans-4-aminocyclohexyl)propanamido)-2-hydroxy-3,4-dihydro-2H-benzo[e][1,2]oxaborinine-8-carboxylic acid]
IC50 (VIM-2): 1000 to 10000 nM
IC50 (KPC-2): < 100 nM
IC50 (OXA-1): < 100 nM
IC50 (SHV-5): < 100 nM
IC50 (p99 AmpC): < 100 nM

CC(C)NCCN[C@H]1CC[C@H](CC(=O)N[C@H]2Cc3cccc(C(=O)O)c3OB2O)CC1 [Example 71, (R)-2-hydroxy-3-(2-(trans-4-(2-(isopropylamino)ethylamino)cyclohexyl)acetamido)-3,4-dihydro-2H-benzo[e][1,2]oxaborinine-8-carboxylic acid]
IC50 (VIM-2): < 100 nM
IC50 (KPC-2): < 100 nM
IC50 (OXA-1): < 100 nM
IC50 (SHV-5): < 100 nM
IC50 (p99 AmpC): < 100 nM

N=C(N)NCCN[C@H]1CC[C@H](CC(=O)N[C@H]2Cc3cccc(C(=O)O)c3OB2O)CC1 [Example 25, (R)-3-(2-(trans-4-(2-guanidinoethylamino)cyclohexyl)acetamido)-2-hydroxy-3,4-dihydro-2H-benzo[e][1,2]oxaborinine-8-carboxylic acid]
IC50 (VIM-2): < 100 nM
IC50 (KPC-2): < 100 nM
IC50 (OXA-1): < 100 nM
IC50 (SHV-5): < 100 nM
IC50 (p99 AmpC): < 100 nM

CN1CCN([C@H]2CC[C@H](CC(=O)N[C@H]3Cc4cccc(C(=O)O)c4OB3O)CC2)C1=N [Example 52, (R)-2-hydroxy-3-(2-(trans-4-(2-imino-3-methylimidazolidin-1-yl)cyclohexyl)acetamido)-3,4-dihydro-2H-benzo[e][1,2]oxaborinine-8-carboxylic acid]
IC50 (VIM-2): 10000 to 100000 nM
IC50 (KPC-2): < 100 nM
IC50 (OXA-1): < 100 nM
IC50 (SHV-5): < 100 nM
IC50 (p99 AmpC): < 100 nM

NCCNC1CC(CC(=O)N[C@H]2Cc3cccc(C(=O)O)c3OB2O)C1 (stereo partly drawn) [Example 55, (R)-3-(2-(3-(2-aminoethylamino)cyclobutyl)acetamido)-2-hydroxy-3,4-dihydro-2H-benzo[e][1,2]oxaborinine-8-carboxylic acid]
IC50 (VIM-2): < 100 nM
IC50 (KPC-2): < 100 nM
IC50 (OXA-1): < 100 nM
IC50 (SHV-5): < 100 nM
IC50 (p99 AmpC): < 100 nM

CS(=O)(=O)NCCN[C@H]1CC[C@H](CC(=O)N[C@H]2Cc3cccc(C(=O)O)c3OB2O)CC1 [Example 49, (R)-2-hydroxy-3-(2-(trans-4-(2-(methylsulfonamido)ethylamino)cyclohexyl)acetamido)-3,4-dihydro-2H-benzo[e][1,2]oxaborinine-8-carboxylic acid]
IC50 (VIM-2): 100 to 1000 nM
IC50 (KPC-2): < 100 nM
IC50 (OXA-1): < 100 nM
IC50 (SHV-5): < 100 nM
IC50 (p99 AmpC): < 100 nM

COC(=O)NCCN[C@H]1CC[C@H](CC(=O)N[C@H]2Cc3cccc(C(=O)O)c3OB2O)CC1 [Example 54, (R)-2-hydroxy-3-(2-(trans-4-(2-(methoxycarbonylamino)ethylamino)cyclohexyl)acetamido)-3,4-dihydro-2H-benzo[e][1,2]oxaborinine-8-carboxylic acid]
IC50 (VIM-2): 100 to 1000 nM
IC50 (KPC-2): < 100 nM
IC50 (OXA-1): < 100 nM
IC50 (SHV-5): < 100 nM
IC50 (p99 AmpC): 100 to 1000 nM

N=C(N)N[C@H]1CC[C@H](CC(=O)N[C@H]2Cc3cccc(C(=O)O)c3OB2O)CC1 [Example 9, (R)-3-(2-(trans-4-guanidinocyclohexyl)acetamido)-2-hydroxy-3,4-dihydro-2H-benzo[e][1,2]oxaborinine-8-carboxylic acid]
IC50 (VIM-2): 100 to 1000 nM
IC50 (KPC-2): < 100 nM
IC50 (OXA-1): < 100 nM
IC50 (SHV-5): < 100 nM
IC50 (p99 AmpC): < 100 nM

N=C(N)NC1CN(C2CCC(CC(=O)N[C@H]3Cc4cccc(C(=O)O)c4OB3O)CC2)C1 (stereo partly drawn) [Example 41, (3R)-3-(2-(4-(3-guanidinoazetidin-1-yl)cyclohexyl)acetamido)-2-hydroxy-3,4-dihydro-2H-benzo[e][1,2]oxaborinine-8-carboxylic acid]
IC50 (VIM-2): 100 to 1000 nM
IC50 (KPC-2): < 100 nM
IC50 (OXA-1): < 100 nM
IC50 (SHV-5; [1]): < 100 nM

O=C(C[C@H]1CC[C@H](N2CCNCC2)CC1)N[C@H]1Cc2cccc(C(=O)O)c2OB1O [Example 16, (R)-2-hydroxy-3-(2-(trans-4-(piperazin-1-yl)cyclohexyl)acetamido)-3,4-dihydro-2H-benzo[e][1,2]oxaborinine-8-carboxylic acid]
IC50 (VIM-2): 1000 to 10000 nM
IC50 (KPC-2): < 100 nM
IC50 (OXA-1): < 100 nM
IC50 (SHV-5): < 100 nM
IC50 (p99 AmpC): < 100 nM

O=C(CC1CCC(O)CC1)N[C@H]1Cc2cccc(C(=O)O)c2OB1O (stereo partly drawn) [Example 47, (3R)-2-hydroxy-3-(2-(4-hydroxycyclohexyl)acetamido)-3,4-dihydro-2H-benzo[e][1,2]oxaborinine-8-carboxylic acid]
IC50 (VIM-2): 1000 to 10000 nM
IC50 (KPC-2): < 100 nM
IC50 (OXA-1): < 100 nM
IC50 (SHV-5; [1]): < 100 nM

CN(C)CCN(C)[C@H]1CC[C@H](CC(=O)N[C@H]2Cc3cccc(C(=O)O)c3OB2O)CC1 [Example 23, (R)-3-(2-(trans-4-((2-(dimethylamino)ethyl)(methyl)amino)cyclohexyl)acetamido)-2-hydroxy-3,4-dihydro-2H-benzo[e][1,2]oxaborinine-8-carboxylic acid]
IC50 (VIM-2): 100 to 1000 nM
IC50 (KPC-2): < 100 nM
IC50 (OXA-1): 100 to 1000 nM
IC50 (SHV-5): < 100 nM
IC50 (p99 AmpC): < 100 nM

O=C(CC1CCC(NC2CNC2)CC1)N[C@H]1Cc2cccc(C(=O)O)c2OB1O (stereo partly drawn) [Example 36, (3R)-3-(2-(4-(azetidin-3-ylamino)cyclohexyl)acetamido)-2-hydroxy-3,4-dihydro-2H-benzo[e][1,2]oxaborinine-8-carboxylic acid]
IC50 (VIM-2): 1000 to 10000 nM
IC50 (KPC-2): < 100 nM
IC50 (OXA-1): < 100 nM
IC50 (SHV-5; [1]): < 100 nM

N=C(N)N1CCN([C@H]2CC[C@H](CC(=O)N[C@H]3Cc4cccc(C(=O)O)c4OB3O)CC2)CC1 [Example 24, (R)-3-(2-(trans-4-(4-carbamimidoylpiperazin-1-yl)cyclohexyl)acetamido)-2-hydroxy-3,4-dihydro-2H-benzo[e][1,2]oxaborinine-8-carboxylic acid]
IC50 (VIM-2): 1000 to 10000 nM
IC50 (KPC-2): < 100 nM
IC50 (OXA-1): < 100 nM
IC50 (SHV-5; [1]): < 100 nM

NC1CN(C2CCC(CC(=O)N[C@H]3Cc4cccc(C(=O)O)c4OB3O)CC2)C1 (stereo partly drawn) [Example 35, (3R)-3-(2-(4-(3-aminoazetidin-1-yl)cyclohexyl)acetamido)-2-hydroxy-3,4-dihydro-2H-benzo[e][1,2]oxaborinine-8-carboxylic acid]
IC50 (VIM-2): 100 to 1000 nM
IC50 (KPC-2): < 100 nM
IC50 (OXA-1): < 100 nM
IC50 (SHV-5; [1]): < 100 nM
